Assay results published in publication PMC11631053, “A receptor-based assay to study the sweet and bitter tastes of sweeteners and binary sweet blends: the SWEET project” (Chemical Senses, 2024).

Tests used:
TAS2R38-AVI = TAS2R38-AVI (Homo sapiens, UniProt P59533, A262V); assay: Calcium mobilization assay, HEK293T-Gα16gust44 cells expressing TAS2R38-AVI
Experimental: (§1) Different concentration ranges were tested depending on the injected sweet compound. […] All of the concentration-receptor combinations were measured in triplicate, and each experiment was repeated at least 3 times. The Ca^2+ change was expressed as a fractional change in fluorescent light intensity: ΔF/F = (F − F0)/F0, where F was the fluorescent light intensity at each point, and F0 was the value of fluorescent light emitted prior to stimulus application. To calculate dose–response relationships, the changes in fluorescence upon stimulus application were averaged, mock-subtracted and baseline-corrected. The resulting obtained dose–response data were adjusted by using a 4-parameter logistic equation. The half-maximal effective concentration (EC50) was calculated by using SigmaPlot software (Systat Software, San Jose, CA, USA) as described in supplemental Supplementary Figs. S1, S2, and S3.

TAS2R38-PAV = TAS2R38-PAV (Homo sapiens, UniProt P59533, A49P/I296V); assay: Calcium mobilization assay, HEK293T-Gα16gust44 cells expressing TAS2R38-PAV
Sequence of TAS2R38-PAV (P59533 whole entry A49P/I296V): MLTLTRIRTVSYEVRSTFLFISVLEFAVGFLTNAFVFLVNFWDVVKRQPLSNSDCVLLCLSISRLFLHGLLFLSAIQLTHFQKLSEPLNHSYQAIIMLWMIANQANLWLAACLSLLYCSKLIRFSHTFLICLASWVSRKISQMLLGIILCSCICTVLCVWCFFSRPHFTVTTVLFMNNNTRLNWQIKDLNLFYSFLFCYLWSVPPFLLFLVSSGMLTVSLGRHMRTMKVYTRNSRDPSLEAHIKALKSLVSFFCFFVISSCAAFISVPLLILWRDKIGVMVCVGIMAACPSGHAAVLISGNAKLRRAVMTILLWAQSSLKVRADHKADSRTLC
Experimental: as §1

Sequence of TAS2R38-AVI (P59533 whole entry A262V): as the sequence (P59533 whole entry A49P/I296V) above, with P49A, A262V, V296I counted along it

Row | SMILES | concentrations at which TAS2R38-AVI was activated (TAS2R38-AVI) | concentrations at which TAS2R38-PAV was activated (TAS2R38-PAV) | EC50 (TAS2R38-PAV; read-out: TAS2R38-PAV EC50, text prints TAS2R38)
1 | O=C(CO)[C@H](O)[C@H](O)[C@H](O)CO [D-allulose] | > 300 mM | > 300 mM | –
2 | C[C@H](CC[C@@H](O[C@@H]1O[C@H](CO[C@@H]2O[C@H](CO)[C@@H](O)[C@H](O)[C@H]2O)[C@@H](O)[C@H](O)[C@H]1O[C@@H]1O[C@H](CO)[C@@H](O)[C@H](O)[C@H]1O)C(C)(C)O)[C@H]1CC[C@@]2(C)[C@@H]3CC=C4[C@@H](CC[C@H](O[C@@H]5O[C@H](CO[C@@H]6O[C@H](CO)[C@@H](O)[C@H](O)[C@H]6O)[C@@H](O)[C@H](O)[C@H]5O)C4(C)C)[C@]3(C)[C@H](O)C[C@]12C [Mogroside V, mogroside V] | – | – | 253 ± 139 µM
